Target: T1, Human M4 (Homo sapiens, UniProt P08173)
T1 construct: expressed in transfected cells
T1 sequence (P08173 1-479): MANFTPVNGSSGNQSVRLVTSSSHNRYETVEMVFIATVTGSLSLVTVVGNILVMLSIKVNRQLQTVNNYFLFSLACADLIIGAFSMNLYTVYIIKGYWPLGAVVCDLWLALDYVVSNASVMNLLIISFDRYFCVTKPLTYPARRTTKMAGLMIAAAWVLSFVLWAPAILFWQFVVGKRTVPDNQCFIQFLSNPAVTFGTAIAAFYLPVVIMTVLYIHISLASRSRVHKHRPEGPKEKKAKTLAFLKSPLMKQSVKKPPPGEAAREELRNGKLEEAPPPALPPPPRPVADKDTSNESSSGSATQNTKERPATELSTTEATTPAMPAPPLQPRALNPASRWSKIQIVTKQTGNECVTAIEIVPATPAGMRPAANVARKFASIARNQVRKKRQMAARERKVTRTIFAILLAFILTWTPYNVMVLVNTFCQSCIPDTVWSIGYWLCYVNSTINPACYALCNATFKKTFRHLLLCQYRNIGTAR
Experiment: mAChR M4 cell-based functional assay (calcium flux, decrease of EC80 acetylcholine response)
Conditions: M4/Gqi5/CHO-K1 cells; for remaining activity at 30 µM: % ACh maximum at 30 μM, read-out: Emin (% ACh maximum at 30 μM); for IC50: decrease of response to EC80 acetylcholine
Method: Human M4 cDNA, along with the chimeric G protein Gqi5, were transfected into Chinese hamster ovary (CHO-K1) cells purchased from the American Type Culture Collection using Lipofectamine2000. M4/Gqi5/CHO cells were grown in Ham's F-12 medium containing 10% heat-inactivated fetal bovine serum (FBS), 20 mM HEPES, 500 μg/mL G418 sulfate, and 200 μg/mL Hygromycin B.
For high throughput measurement of agonist-evoked increases in intracellular calcium, CHO-K1 cells stably expressing muscarinic receptors were plated in growth medium lacking G418 and hygromycin at 15,000 cells/20 μL/well in Greiner 384-well black-walled, tissue culture (TC)-treated, clear-bottom plates (VWR). Cells were incubated overnight at 37° C. and 5% CO2. The next day, cells were washed using an ELX 405 (BioTek) with assay buffer; the final volume was then aspirated to 20 μL. Next, 20 μL of a 2.3 μM stock of Fluo-4/acetoxymethyl ester (Invitrogen, Carlsbad, Calif.), prepared as a 2.3 mM stock in DMSO and mixed in a 1:1 ratio with 10% (w/v) Pluronic F-127 and diluted in assay buffer, was added to the wells and the cell plates were incubated for 50 min at 37° C. and 5% CO2. Dye was removed by washing with the ELX 405 and the final volume was aspirated to 20 μL. Compound master plates were formatted in a 10 point concentration-response curve (CRC) format (1:3 dilutions) in 100% DMSO with a starting concentration of 10 or 1 mM using a BRAVO liquid handler (Agilent). Test compound CRCs were then transferred to daughter plates (240 nL) using the Echo acoustic plate reformatter (Labcyte, Sunnyvale, Calif.) and then diluted into assay buffer (40 μL) to a 2× stock using a Thermo Fisher Combi (Thermo Fisher Scientific, Waltham, Mass.).
Calcium flux was measured using the Functional Drug Screening System (FDSS) 6000 or 7000 (Hamamatsu Corporation, Tokyo, Japan) as an increase in the fluorescent static ratio. Compounds were applied to cells (20 μL, 2×) using the automated system of the FDSS at 2 seconds into the protocol and the data were collected at 1 Hz. At 143 s, 10 μL of an EC20 concentration of the muscarinic receptor agonist acetylcholine was added (5×), followed by the addition of 12 μL of an EC80 concentration of acetylcholine at the 268 s time point (5×). Agonist activity was analyzed as a concentration-dependent increase in calcium mobilization upon compound addition. Positive allosteric modulator activity was analyzed as a concentration-dependent increase in the EC20 acetylcholine response. Antagonist activity was analyzed as a concentration-dependent decrease in the EC80 acetylcholine response; for the purposes of the tables herein, an IC50 (inhibitory concentration 50) was calculated as a concentration-dependent decrease of the response elicited by an EC80 concentration of acetylcholine. Concentration-response curves were generated using a four-parameter logistical equation in XLFit curve fitting software (HMS, Bridgewater, N.J.) for Excel (Microsoft, Redmond, Wash.) or Prism (GraphPad Software, Inc., San Diego, Calif.) or the Dotmatics software platform (Dotmatics, Bishop's Stortford, UK).
Compounds were synthesized as described above. Activity (IC50 and Emin) was determined in the inAChR M4 cell-based functional assay as described above and the data are shown in Table 2. The compound numbers correspond to the compound numbers used in Examples 1 and 2 and Tables 1 and 2.

SMILES	remaining activity at 30 µM [%]	IC50 [nM]
Cc1cc(CN2C[C@@H]3[C@H](C2)[C@H]3Nc2ccc(-c3cc(F)ccc3Cl)nn2)nn1C [Compound 26, (1R,5S,6s)-N-[6-(2-chloro-5-fluoro-phenyl)pyridazin-3-yl]-3-[(1,5-dimethylpyrazol-3-yl)methyl]-3-azabicyclo[3.1.0]hexan-6-amine]	13	4760
Fc1ccc(Cl)c(-c2ccc(N[C@H]3[C@@H]4CN(Cc5ccccn5)C[C@@H]43)nn2)c1 [Compound 24, (1R,5S,6s)-N-[6-(2-chloro-5-fluoro-phenyl)pyridazin-3-yl]-3-(2-pyridylmethyl)-3-azabicyclo[3.1.0]hexan-6-amine]	16	6770
Fc1ccc(F)c(-c2ccc(N[C@H]3[C@@H]4CN(Cc5ccc6c(c5)OCO6)C[C@@H]43)nn2)c1 [Compound 35, (1R,5S,6s)-3-(1,3-benzodioxol-5-ylmethyl)-N-[6-(2,5-difluorophenyl)pyridazin-3-yl]-3-azabicyclo[3.1.0]hexan-6-amine]	36	–
Cc1cc(CN2C[C@@H]3[C@H](C2)[C@H]3Nc2ccc(-c3ccc4nn(C)cc4c3)nn2)nn1C [Compound 38, (1R,5S,6s)-3-[(1,5-dimethylpyrazol-3-yl)methyl]-N-[6-(2-methylindazol-5-yl)pyridazin-3-yl]-3-azabicyclo[3.1.0]hexan-6-amine]	40	> 10000
c1ccc2cc(-c3ccc(N[C@H]4[C@@H]5CN(CC6CCOCC6)C[C@@H]54)nn3)ccc2c1 [Compound 29, (1R,5S,6s)-N-[6-(2-naphthyl)pyridazin-3-yl]-3-(tetrahydropyran-4-ylmethyl)-3-azabicyclo[3.1.0]hexan-6-amine]	15	–
Fc1ccc(F)c(-c2ccc(N[C@H]3[C@@H]4CN(Cc5ccccn5)C[C@@H]43)nn2)c1 [Compound 34, (1R,5S,6s)-N-[6-(2,5-difluorophenyl)pyridazin-3-yl]-3-(2-pyridylmethyl)-3-azabicyclo[3.1.0]hexan-6-amine]	46	–
Fc1ccc(CN2C[C@@H]3[C@H](C2)[C@H]3Nc2ccc(-c3cc(F)ccc3Cl)nn2)cc1 [Compound 23, (1R,5S,6s)-N-[6-(2-chloro-5-fluoro-phenyl)pyridazin-3-yl]-3-[(4-fluorophenyl)methyl]-3-azabicyclo[3.1.0]hexan-6-amine]	30	1660
CC(=O)Nc1ccc(-c2ccc(N[C@H]3[C@@H]4CN(CC5CCOCC5)C[C@@H]43)nn2)cc1 [Compound 19, N-[4-[6-[[(1R,5S,6s)-3-(tetrahydropyran-4-ylmethyl)-3-azabicyclo[3.1.0]hexan-6-yl]amino]pyridazin-3-yl]phenyl]acetamide]	39	–
Cc1cc(CN2C[C@@H]3[C@H](C2)[C@H]3Nc2ccc(-c3cc(F)ccc3F)nn2)nn1C [Compound 36, (1R,5S,6s)-N-[6-(2,5-difluorophenyl)pyridazin-3-yl]-3-[(1,5-dimethylpyrazol-3-yl)methyl]-3-azabicyclo[3.1.0]hexan-6-amine]	38	–
Cc1nn(C)cc1-c1ccc(N[C@H]2[C@@H]3CN(CC4CC5C=CC4C5)C[C@@H]32)nn1 (stereo partly drawn) [Compound 2, (1R,5S,6s)-3-(5-bicyclo[2.2.1]hept-2-enylmethyl)-N-[6-(1,3-dimethylpyrazol-4-yl)pyridazin-3-yl]-3-azabicyclo[3.1.0]hexan-6-amine]	5	100
CC(C)(C)CCN1C[C@@H]2[C@H](C1)[C@H]2Nc1ccc(-c2cc(F)ccc2F)nn1 [Compound 37, (1R,5S,6s)-N-[6-(2,5-difluorophenyl)pyridazin-3-yl]-3-(3,3-dimethylbutyl)-3-azabicyclo[3.1.0]hexan-6-amine]	4	255

— patent US11414406B2, “Antagonists of the muscarinic acetylcholine receptor M4” (Vanderbilt University, priority 2018, dated 2022)
